Target: T1, Bcl-2 protein (Recombinant Human Bcl-2 Protein) (Homo sapiens, UniProt P10415)
T1 construct: purchased Novus NBP2-34889
Assay: Binding evaluation of mixture library compounds to Bcl-2 using AS-MS (affinity selection mass spectrometry)
Conditions: for ASMS ratio (%) n = 1: replicate n = 1; for ASMS ratio (%) n = 1 / ASMS ratio (%) n = 2: ASMS Ratio(%)=(A−C)/B×100; for ASMS ratio (%) n = 2: replicate n = 2
In short: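 Bcl-2 binding is scored from LC/MS signal retained with protein through gel-filtration spin columns, normalised to unfiltered and protein-free controls. Incubation: 20 μM protein, […] per compound, 1 h, 23° C.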

[1] = AS-MS on the mixture of 1200 library compounds
[2] = AS-MS, mixture of 1200 compounds, Bcl-2

T1 sequence (P10415 whole entry): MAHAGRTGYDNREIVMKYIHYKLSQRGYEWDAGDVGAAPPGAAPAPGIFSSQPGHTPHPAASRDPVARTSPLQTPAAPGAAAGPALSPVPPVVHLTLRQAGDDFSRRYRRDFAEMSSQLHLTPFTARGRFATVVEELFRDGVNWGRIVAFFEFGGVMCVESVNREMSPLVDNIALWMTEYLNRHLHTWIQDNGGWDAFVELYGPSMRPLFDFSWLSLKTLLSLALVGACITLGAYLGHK

CCOc1cccc(-c2cc(C(=O)N3CCN(c4ccc(C(=O)NS(=O)(=O)CC56CC7CC(CC(C7)C5)C6)nn4)CC3)cc(C(C)(C)C)c2)c1 [B2A015-01, N-(1-Adamantylmethylsulfonyl)-6-[4-[3-tert-butyl-5-(3-ethoxyphenyl)benzoyl]piperazin-1-yl]pyridazine-3-carboxamide]
ASMS ratio (%) n = 1 (AS-MS, mixture library, Bcl-2): 5.9% | ASMS ratio (%) n = 2 (AS-MS, mixture library, Bcl-2): 9.7%

CCOc1cccc(-c2ccc(C(=O)N3CCN(c4ccc(C(=O)NS(=O)(=O)CCC(F)(F)F)nn4)CC3)c3ccccc23)c1 [B2N013-01, 6-[4-[4-(3-Ethoxyphenyl)naphthalene-1-carbonyl]piperazin-1-yl]-N-(3,3,3-trifluoropropylsulfonyl)pyridazine-3-carboxamide]
ASMS ratio (%) (n = 1): 0.0% | ASMS ratio (%) (n = 2): 0.0%

CCOc1cncc(-c2ccc(C(C)N3CCN(c4ccc(C(=O)NS(=O)(=O)CCC(F)(F)F)cc4)CC3)cc2)c1 (centres unmarked) [B2N098-01, 4-[4-[1-[4-(5-Ethoxypyridin-3-yl)phenyl]ethyl]piperazin-1-yl]-N-(3,3,3-trifluoropropylsulfonyl)benzamide]
ASMS ratio (%) (n = 1): 0.0% | ASMS ratio (%) (n = 2): −0.7%

CCOc1cncc(-c2ccc(C(=O)N3CCN(c4ccc(C(=O)N(C)CC56CC7CC(CC(C7)C5)C6)cc4)CC3)cc2F)c1 [B3A028-01, N-(1-Adamantylmethyl)-4-[4-[4-(5-ethoxypyridin-3-yl)-3-fluorobenzoyl]piperazin-1-yl]-N-methylbenzamide]
ASMS ratio (%) n = 1 [1]: 9.8% | ASMS ratio (%) n = 2 [1]: 1.6%

CCOc1cncc(C#Cc2cc(C(=O)N3CCN(c4ccc(C(=O)Nc5ccc(OC)cc5)nn4)CC3)cc(C(F)(F)F)c2)c1 [B1O020-01, 6-[4-[3-[2-(5-Ethoxypyridin-3-yl)ethynyl]-5-(trifluoromethyl)benzoyl]piperazin-1-yl]-N-(4-methoxyphenyl)pyridazine-3-carboxamide]
ASMS ratio (%) n = 1 [1]: 8.6% | ASMS ratio (%) n = 2 [1]: −0.5%

CCOc1cncc(-c2cnn(-c3cc(C(=O)N4CCN(c5ccc(C(=O)NS(=O)(=O)CC67CC8CC(CC(C8)C6)C7)nn5)CC4)cc(C(F)(F)F)c3)c2)c1 [B2A022-01, N-(1-Adamantylmethylsulfonyl)-6-[4-[3-[4-(5-ethoxypyridin-3-yl)pyrazol-1-yl]-5-(trifluoromethyl)benzoyl]piperazin-1-yl]pyridazine-3-carboxamide]
ASMS ratio (%) n = 1 (AS-MS, mixture library, Bcl-2): 27.0% | ASMS ratio (%) n = 2 (AS-MS, mixture library, Bcl-2): 3.7%

CCOc1cncc(-c2ccccc2CN2CCN(c3ccc(C(=O)N(CC)CC)nn3)CC2)c1 [B4J072-01, 6-[4-[[2-(5-Ethoxypyridin-3-yl)phenyl]methyl]piperazin-1-yl]-N,N-diethylpyridazine-3-carboxamide]
ASMS ratio (%) n = 1 (AS-MS, mixture library, Bcl-2): −1.6% | ASMS ratio (%) n = 2 (AS-MS, mixture library, Bcl-2): 0.9%

6-[4-[[4-(3-Ethoxyphenyl)-3-methylphenyl]methyl]piperazin-1-yl]-N-propylpyridazine-3-carboxamide [B1M059-01]
ASMS ratio (%) n = 1 [2]: −5.5% | ASMS ratio (%) n = 2 [2]: −7.2%

6-[4-[2-[2-(5-Ethoxypyridin-3-yl)ethynyl]benzoyl]piperazin-1-yl]-N-propylpyridazine-3-carboxamide [B1M096-01]
ASMS ratio (%) n = 2 [1]: 0.0%

CCCNC(=O)c1ccc(N2CCN(Cc3cc(-c4cccc(OCC)c4)cc(C(F)(F)F)c3)CC2)nn1 [B1M027-01]
ASMS ratio (%) n = 1 [2]: 1.0% | ASMS ratio (%) n = 2 [2]: 0.4%

CCOc1cccc(-c2csc(C(=O)N3CCN(c4ccc(C(=O)NCC56CC7CC(CC(C7)C5)C6)cc4)CC3)c2)c1 [B1A023-01, N-(1-Adamantylmethyl)-4-[4-[4-(3-ethoxyphenyl)thiophene-2-carbonyl]piperazin-1-yl]benzamide]
ASMS ratio (%) n = 1 [2]: 4.0% | ASMS ratio (%) n = 2 [2]: 0.8%

CCOc1cncc(C#Cc2ccccc2C(=O)N2CCN(c3ccc(C(=O)NS(=O)(=O)CCC(F)(F)F)cc3)CC2)c1 [B2N030-01, 4-[4-[2-[2-(5-Ethoxypyridin-3-yl)ethynyl]benzoyl]piperazin-1-yl]-N-(3,3,3-trifluoropropylsulfonyl)benzamide]
ASMS ratio (%) (n = 1): 0.0% | ASMS ratio (%) (n = 2): 0.0%

CCOc1cccc(-c2ccc(C(=O)N3CCN(c4ccc(C(=O)NCC(F)(F)F)nn4)CC3)cc2C)c1 [B1K003-01, 6-[4-[4-(3-Ethoxyphenyl)-3-methylbenzoyl]piperazin-1-yl]-N-(2,2,2-trifluoroethyl)pyridazine-3-carboxamide]
ASMS ratio (%) n = 1 [2]: 0.1% | ASMS ratio (%) n = 2 [2]: −0.2%

CCCNC(=O)c1ccc(N2CCN(Cc3ccc(-c4cccc(OCC)c4)c(C)c3)CC2)cc1 [B1M058-01]
ASMS ratio (%) n = 1 [2]: −1.4% | ASMS ratio (%) n = 2 [2]: −1.5%

CCOc1cccc(-c2ccc(CN3CCN(c4ccc(C(=O)NS(=O)(=O)CCC(F)(F)F)cc4)CC3)c(OC)c2)c1 [B2N053-01, 4-[4-[[4-(3-Ethoxyphenyl)-2-methoxyphenyl]methyl]piperazin-1-yl]-N-(3,3,3-trifluoropropylsulfonyl)benzamide]
ASMS ratio (%) (n = 1): 0.0% | ASMS ratio (%) (n = 2): 1.4%

CCOc1cncc(-c2cc(CN3CCN(c4ccc(C(=O)NS(=O)(=O)CCC(F)(F)F)cc4)CC3)cc(OCC)c2)c1 [B2N056-01]
ASMS ratio (%) (n = 1): 0.0% | ASMS ratio (%) (n = 2): 0.0%

CCOc1cncc(-c2ccc(CN3CCN(c4ccc(C(=O)Nc5ccc(OC)cc5)nn4)CC3)c3ccccc23)c1 [B1O092-01, 6-[4-[[4-(5-Ethoxypyridin-3-yl)naphthalen-1-yl]methyl]piperazin-1-yl]-N-(4-methoxyphenyl)pyridazine-3-carboxamide]
ASMS ratio (%) n = 1 [1]: 6.3% | ASMS ratio (%) n = 2 [1]: −1.4%

CCOc1cccc(-c2cc(CN3CCN(c4ccc(C(=O)NS(=O)(=O)CCC(F)(F)F)nn4)CC3)cc(C(F)(F)F)c2)c1 [B2N087-01]
ASMS ratio (%) (n = 1): 0.0% | ASMS ratio (%) (n = 2): 0.0%

CCOc1cncc(-c2ccc(C(=O)N3CCN(c4ccc(C(=O)N(CC)CC)cc4)CC3)cc2C)c1 [B4J026-01, 4-[4-[4-(5-Ethoxypyridin-3-yl)-3-methylbenzoyl]piperazin-1-yl]-N,N-diethylbenzamide]
ASMS ratio (%) n = 1 [1]: −3.6% | ASMS ratio (%) n = 2 [1]: −5.9%

CCOc1cncc(-c2cc(OC)c(CN3CCN(c4ccc(C(=O)NS(=O)(=O)CC56CC7CC(CC(C7)C5)C6)cc4)CC3)c(OC)c2)c1 [B2A060-01, N-(1-Adamantylmethylsulfonyl)-4-[4-[[4-(5-ethoxypyridin-3-yl)-2,6-dimethoxyphenyl]methyl]piperazin-1-yl]benzamide]
ASMS ratio (%) n = 1 (AS-MS, mixture library, Bcl-2): 0.0% | ASMS ratio (%) n = 2 (AS-MS, mixture library, Bcl-2): 0.0%

CCOc1cncc(-c2ccc(CN3CCN(c4ccc(C(=O)NCC56CC7CC(CC(C7)C5)C6)cc4)CC3)cc2F)c1 [B1A052-01, N-(1-Adamantylmethyl)-4-[4-[[4-(5-ethoxypyridin-3-yl)-3-fluorophenyl]methyl]piperazin-1-yl]benzamide]
ASMS ratio (%) n = 1 [2]: 4.2% | ASMS ratio (%) n = 2 [2]: −6.2%
